Laboratory results as given in patent publication US6790843B1, “C-19-halogen-substituted steroids of the androst-9(11)-ene-series, methods for the production and use thereof” (Schering AG, priority 1999, dated 2004).

Assays:
[1] = target: T1, human androgen receptor (Homo sapiens, UniProt P10275); assay: binding affinity to the androgen receptor (reference standard 3H-methyltrienolone R 1881)
T1 sequence (P10275 1-920): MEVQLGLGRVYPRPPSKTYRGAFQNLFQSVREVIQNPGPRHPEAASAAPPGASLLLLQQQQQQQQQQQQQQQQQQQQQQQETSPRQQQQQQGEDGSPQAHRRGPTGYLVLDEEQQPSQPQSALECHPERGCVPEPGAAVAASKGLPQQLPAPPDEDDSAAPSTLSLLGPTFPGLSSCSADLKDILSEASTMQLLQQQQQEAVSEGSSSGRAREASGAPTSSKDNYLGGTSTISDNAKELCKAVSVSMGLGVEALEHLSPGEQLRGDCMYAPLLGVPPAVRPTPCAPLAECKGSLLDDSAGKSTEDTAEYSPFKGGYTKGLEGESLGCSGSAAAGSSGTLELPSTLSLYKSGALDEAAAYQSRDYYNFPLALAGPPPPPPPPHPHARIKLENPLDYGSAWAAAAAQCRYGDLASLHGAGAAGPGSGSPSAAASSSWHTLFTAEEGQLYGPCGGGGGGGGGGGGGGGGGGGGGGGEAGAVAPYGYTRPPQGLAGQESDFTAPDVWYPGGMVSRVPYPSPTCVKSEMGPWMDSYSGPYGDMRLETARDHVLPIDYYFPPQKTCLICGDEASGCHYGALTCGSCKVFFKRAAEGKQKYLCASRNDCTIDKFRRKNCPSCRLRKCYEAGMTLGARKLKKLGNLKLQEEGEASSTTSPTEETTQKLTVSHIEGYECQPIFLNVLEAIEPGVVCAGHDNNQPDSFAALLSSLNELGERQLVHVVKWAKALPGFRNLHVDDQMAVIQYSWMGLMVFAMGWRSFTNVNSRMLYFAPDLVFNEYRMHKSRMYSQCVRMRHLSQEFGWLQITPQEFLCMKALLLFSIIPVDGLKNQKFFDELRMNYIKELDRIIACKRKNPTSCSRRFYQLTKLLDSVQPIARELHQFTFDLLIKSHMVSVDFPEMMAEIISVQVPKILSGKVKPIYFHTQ

For `CCCCCCCSCC[C@]12CC[C@@H]3C(=CC[C@]4(C)[C@@H](O)CC[C@@H]34)[C@@]1(C)CC[C@H](O)C2`, the melting point was 126 °C.

Molecule `CCn1ccnc1SCC[C@]12CC[C@@H]3C(=CC[C@]4(C)[C@@H](O)CC[C@@H]34)[C@@]1(C)CC[C@H](O)C2` has a melting point of 212 °C.

For `C[C@]12CC=C3[C@@H](CCC4=CC(=O)CC[C@@]43CBr)[C@@H]1CC[C@@H]2O` [Example 2, 19-Bromo-17β-hydroxy-androsta-4,9(11)-dien-3-one], the “affinity to the androgen receptor (in words)” value [1] was “high affinity” and the melting point was 149 °C (dec.).

For `C[C@]12CC=C3[C@@H](CCC4=CC(=O)CC[C@@]43CI)[C@@H]1CC[C@@H]2O` [iodide 6, 17β-Hydroxy-19-iodo-androsta-4,9(11)-dien-3-one], the IC50 [1] was 57 nM and the “affinity to the androgen receptor (in words)” value [1] was “high affinity”.
